Data as given in ChEMBL document CHEMBL5303304, “EUbOPEN Chemogenomics Library - IncuCyte” (2023).

Key:
Assay type in all cases: toxicity, cell-based
HEK-293T = assay: Incucyte cell viability with HEK293T; conditions: human, 10 µM, compound concentration 10 uM
U2OS = assay: Incucyte cell viability with U2OS; conditions: human, 10 µM, compound concentration 10 uM
Fibroblast = assay: Incucyte cell viability with human fibroblast; conditions: 10 µM, compound concentration 10 uM
Note: unitless GR value; below 1 slowed growth and below 0 cell loss.

Structure (SMILES) | Growth Rate (HEK-293T; 6 h, replicate number 1) | Growth Rate (HEK-293T; 6 h, replicate number 2) | Growth Rate (HEK-293T; 12 h, replicate number 1) | Growth Rate (HEK-293T; 12 h, replicate number 2) | Growth Rate (HEK-293T; 18 h, replicate number 1) | Growth Rate (HEK-293T; 18 h, replicate number 2) | Growth Rate (HEK-293T; 24 h, replicate number 1) | Growth Rate (HEK-293T; 24 h, replicate number 2) | Growth Rate (U2OS; 0 h, replicate number 1) | Growth Rate (U2OS; 6 h, replicate number 1) | Growth Rate (U2OS; 6 h, replicate number 2) | Growth Rate (U2OS; 12 h, replicate number 2) | Growth Rate (U2OS; 18 h, replicate number 1) | Growth Rate (U2OS; 18 h, replicate number 2) | Growth Rate (U2OS; 24 h, replicate number 1) | Growth Rate (U2OS; 24 h, replicate number 2) | Growth Rate (Fibroblast; 6 h, replicate number 1) | Growth Rate (Fibroblast; 12 h, replicate number 1) | Growth Rate (Fibroblast; 18 h, replicate number 1) | Growth Rate (Fibroblast; 24 h, replicate number 1) | other results
C=CC(=O)Nc1cccc(C)c1Nc1ncc2cc(-c3c(Cl)c(OC)cc(OC)c3Cl)ccc2n1 | -0.39 | -0.56 | -0.35 | -0.45 | -0.32 | -0.41 | -0.21 | -0.26 | -0.45 | 0.45 | 0.31 | 0.5 | 0.32 | 0.42 | 0.38 | 0.4 | -0.64 | 0.12 | 0.03 | 0.05 | Growth Rate (U2OS; 0 h, replicate number 2): 0.38; Growth Rate (U2OS; 12 h, replicate number 1): 0.25; Growth Rate (Fibroblast; 6 h, replicate number 2): -0.2; Growth Rate (Fibroblast; 12 h, replicate number 2): 0.44; Growth Rate (Fibroblast; 18 h, replicate number 2): 0.44; Growth Rate (Fibroblast; 24 h, replicate number 2): 0.33
CCOC(=O)c1ccc(N2C(=O)C(O)=C(C(=O)c3ccc(OC)cc3)C2c2ccc(F)cc2)cc1 (centres undefined) | 0.75 | – | – | – | – | 0.83 | – | 0.85 | 0.54 | – | 0.87 | 0.89 | 0.96 | 1 | – | 0.74 | 0.14 | -1 | -0.29 | – | Growth Rate (HEK-293T; 0 h, replicate number 2): 0.85; Growth Rate (U2OS; 0 h, replicate number 2): 0.5; Growth Rate (Fibroblast; 0 h, replicate number 2): -0.75
CN(C(=O)c1ccccc1)c1ccc2c(c1)nc(NC(=O)c1ccc(Br)s1)n2CCC(N)=O | 0.09 | 0.04 | 0.33 | 0.26 | 0.34 | 0.3 | 0.4 | 0.34 | -1 | – | 0.89 | 0.72 | 0.9 | 0.71 | – | 0.68 | – | – | – | 0.96 | Growth Rate (Fibroblast; 0 h, replicate number 1): -0.8; Growth Rate (Fibroblast; 0 h, replicate number 2): -0.39
CN(C)CCCNc1ccnc(Nc2cccc(Cl)c2)n1 | -0.38 | – | -0.19 | -0.09 | -0.03 | 0.04 | 0.02 | 0.29 | -1 | -0.98 | 0.82 | 0.65 | – | 0.64 | – | 0.47 | 0.3 | 0.88 | 0.67 | 0.56 | Growth Rate (Fibroblast; 0 h, replicate number 1): -0.99; Growth Rate (Fibroblast; 0 h, replicate number 2): 0.25; Growth Rate (Fibroblast; 6 h, replicate number 2): 0; Growth Rate (Fibroblast; 12 h, replicate number 2): 0.34; Growth Rate (Fibroblast; 18 h, replicate number 2): 0.45; Growth Rate (Fibroblast; 24 h, replicate number 2): 0.38
COC(=O)c1ccc2c(c1)NC(=O)/C2=C(\Nc1ccc(-c2nccn2C)cc1)c1ccccc1 | -0.53 | -0.73 | -0.37 | -0.51 | -0.26 | -0.37 | -0.09 | -0.27 | -1 | 0.57 | 0.77 | 0.61 | 0.46 | 0.62 | -0.6 | 0.46 | – | – | – | – | Growth Rate (U2OS; 12 h, replicate number 1): 0.53; Growth Rate (Fibroblast; 0 h, replicate number 1): -1
Cc1cc(C2CCCNC2)ccc1Nc1ncc(Br)c(NCc2cccc3c2C(C)(C)C(=O)N3)n1 (centres undefined) | 0.39 | 0.05 | 0.08 | 0.09 | 0.07 | 0.12 | -0.01 | 0.13 | -0.95 | – | 0.86 | 0.61 | 0.88 | 0.46 | 0.8 | 0.37 | – | – | 0.61 | 0.34 | Growth Rate (Fibroblast; 12 h, replicate number 2): 0.81; Growth Rate (Fibroblast; 18 h, replicate number 2): 0.49; Growth Rate (Fibroblast; 24 h, replicate number 2): 0.32
COCCN1CCN(CCn2ccc(Nc3ncc4c(n3)-c3c(nn(C)c3-c3ccccc3)C[C@H]4C)n2)CC1 | -0.53 | -0.51 | -0.36 | -0.33 | -0.28 | -0.32 | -0.17 | -0.22 | – | 0.91 | 0.25 | -0.9 | 0.7 | -0.83 | 0.85 | 0.5 | 0.35 | 0.47 | 0.37 | 0.52 | Growth Rate (U2OS; 12 h, replicate number 1): -0.73; Growth Rate (Fibroblast; 0 h, replicate number 2): 0.9; Growth Rate (Fibroblast; 6 h, replicate number 2): 0.5; Growth Rate (Fibroblast; 12 h, replicate number 2): 0.24; Growth Rate (Fibroblast; 18 h, replicate number 2): 0.31; Growth Rate (Fibroblast; 24 h, replicate number 2): 0.41
